Results reported in US20230131943A1, “ANTI-INFECTIVE AND ANTI-VIRAL COMPOUNDS AND COMPOSITIONS” (priority 2020, published 2023).

Key:
SARS-CoV-2 = SARS-CoV-2 virus production in infected CaCo2 cells (fluorescence or luminescence normalized to Hoechst); conditions: for SARS-CoV-2 viral protein production in CaCo2 cells - effect of each substance at 10 μM (% of untreated): 10 μM in medium, low values indicate inhibition of viral protein production; for Fluorescence ratio: added substances at the fixed concentration indicated, CaCo2 cells, untreated = 0.2
[1] = Dextran sulfate colitis model of inflammatory bowel disease in mice; assay type: in vivo, mouse; conditions: FIG. 18; all doses 1.34 μmol/kg; N=8
Text: The potential efficacy of a Compound for Inflammatory bowel disease may be modeled as follows. C57 BLK6 or BALBc mice are provided with drinking water containing 2.5% or 2.8% dextran sulfate. Animals are weighed and observed for signs of intestinal disturbance daily. Signs include diarrhea or occult blood. Compound is formulated by mixing with a solution of 0.1 up to 1% citric acid depending on concentration. Compound is provided by oral gavage daily.

[2] = test system: Staphylococcus aureus Newman; experiment: Infection of mice by Staphylococcus aureus Newman (body weight, CFU from kidney); assay type: in vivo; conditions: FIG. 6; mice infected with Staphylococcus aureus Newman
Salmonella typhimurium = experiment: Inhibition of growth of Salmonella typhimurium (optical density of culture); assay type: cell-based; conditions: after 9-20 h, no compound 0.943
Procedure: (§1) Activity of substances in the inhibition of growth of bacteria. Bacteria including the species Escherichia coli, Bacillus pumilus, Salmonella sp., Micrococcus luteus and Staphylococcus carnosus are cultured in appropriate media (Luria broth for all except S. canosus). Overnight cultures are mixed with fresh medium to reach an optical density at […] of ca. 0.1 AU. These cultures are mixed with solutions of substances to be tested at concentrations ranging from 100 μM to 0.05 μM in a microtitre plate. The growth of the culture is monitored by measuring the optical density at various times after the addition of the inhibitor. Reduction in the rate of increase in optical density corresponds to an inhibition of bacterial growth. In the following tables, the activity of various of the test substances may be observed by reductions in optical density relative to untreated control cultures.

Staphylococcus carnosus = experiment: Inhibition of growth of Staphylococcus carnosus (optical density of culture); assay type: cell-based; conditions: after 9-20 h, no compound 0.887
Procedure: as §1

SMILES: CCC(=O)O[C@@H]1[C@@H](C)N(C)C[C@H](C)C[C@@](C)(O)[C@H](O[C@@H]2O[C@H](C)CC(N(C)C)[C@H]2O)[C@@H](C)[C@H](O[C@H]2C[C@@](C)(OC)[C@@H](O)[C@H](C)O2)[C@@H](C)C(=O)O[C@H](CC)[C@@]1(C)O (stereo partly drawn) [Compound E-18]
- SARS-CoV-2 viral protein production in CaCo2 cells - effect of each substance at 10 μM (% of untreated) (SARS-CoV-2): 49 % of untreated

SMILES: CCCCCCCCCCN(C)C1C[C@@H](C)O[C@@H](O[C@@H]2[C@@H](C)[C@H](O[C@H]3C[C@@](C)(OC)[C@@H](O[N+](=O)[O-])[C@H](C)O3)[C@@H](C)C(=O)O[C@H](CC)[C@@](C)(O)[C@H](O)[C@@H](C)N(C)C[C@H](C)C[C@@]2(C)O)[C@@H]1O (stereo partly drawn) [Compound E-3]
- Body weight and clinical score of BALBc mice at day 9 after commencing 2.5% DSS in water [1]: stimulate inflammation

SMILES: CCCN(CCO)CC(O)CN(C)[C@H]1C[C@@H](C)O[C@@H](O[C@@H]2[C@@H](C)[C@H](O[C@H]3C[C@@](C)(OC)[C@@H](O)[C@H](C)O3)[C@@H](C)C(=O)O[C@H](CC)[C@@](C)(O)[C@H](O)[C@@H](C)N(C)C[C@H](C)C[C@@]2(C)O)[C@@H]1O (stereo partly drawn) [Compound A-24, (2R,3S,4R,5R,8R,10R,11R,12S,13S, 14R)-2-ethyl-3,4,10-trihydroxy-11-(((2S,3R,4R,6R)-3-hydroxy-4-((2-hydroxy-3-((2-hydroxyethyl)(propyl)amino)propyl) (methyl)amino)-6-methyltetrahydro-2H-pyran-2-yl)oxy)-13-(((2R,4R,58,6S)-5-hydroxy-4-methoxy-4,6-dimethyltetrahydro-2H-pyran-2-yl)oxy)-3,5,6,8,10,12,14-heptamethyl-1-oxa-6-azacyclopentadecan-15-one]
- SARS-CoV-2 viral protein production in CaCo2 cells - effect of each substance at 10 μM (% of untreated) (SARS-CoV-2): 35 % of untreated

SMILES: CC[C@H]1OC(=O)[C@H](C)[C@@H](O[C@H]2C[C@@](C)(OC)[C@@H](O)[C@H](C)O2)[C@H](C)[C@@H](O[C@@H]2O[C@H](C)C[C@H](N(C)C)[C@H]2O)[C@](C)(O)C[C@@H](C)CN(C)[C@H](C)[C@@H](O)[C@]1(C)O [Azithromycin, reference compound]
- Bacteria quantified as CFU recovered from a standard sample of kidney [2]: decreases recovered bacteria in a dose responsive manner

SMILES: CCCC(=O)O[C@@H]1C(N(C)C)C[C@@H](C)O[C@H]1O[C@@H]1[C@@H](C)[C@H](O[C@H]2C[C@@](C)(OC)[C@@H](O)[C@H](C)O2)[C@@H](C)C(=O)O[C@H](CC)[C@@](C)(O)[C@H](O)[C@@H](C)N(C)C[C@H](C)C[C@@]1(C)O (stereo partly drawn) [Compound E-19]
- SARS-CoV-2 viral protein production in CaCo2 cells - effect of each substance at 10 μM (% of untreated) (SARS-CoV-2): 34 % of untreated

SMILES: CC[C@H]1OC(=O)[C@H](C)[C@@H](O[C@H]2C[C@@](C)(OC)[C@@H](O)[C@H](C)O2)[C@H](C)[C@@H](O[C@@H]2O[C@H](C)CC(N(C)C)[C@H]2O[N+](=O)[O-])[C@](C)(O)C[C@@H](C)CN(C)[C@H](C)[C@@H](OC)[C@]1(C)O (stereo partly drawn) [Compound E-11]
- SARS-CoV-2 viral protein production in CaCo2 cells - effect of each substance at 10 μM (% of untreated) (SARS-CoV-2): 32 % of untreated
- Absorbance of culture medium at 600 nm (Salmonella typhimurium; 0.8 μM): 0.555
- Absorbance of culture medium at 600 nm (Salmonella typhimurium; 2 μM): 0.587
- Absorbance of culture medium at 600 nm (Salmonella typhimurium; 3 μM): 0.623
- Absorbance of culture medium at 600 nm (Salmonella typhimurium; 6 μM): 0.627
- Absorbance of culture medium at 600 nm (Salmonella typhimurium; 13 μM): 0.633
- Absorbance of culture medium at 600 nm (Salmonella typhimurium; 25 μM): 0.697
- Absorbance of culture medium at 600 nm (Salmonella typhimurium; 50 μM): 0.650
- Absorbance of culture medium at 600 nm (Salmonella typhimurium; 100 μM): 0.562
- Absorbance of culture medium at 600 nm (Staphylococcus carnosus; 0.8 μM): 0.941
- Absorbance of culture medium at 600 nm (Staphylococcus carnosus; 2 μM): 0.918
- Absorbance of culture medium at 600 nm (Staphylococcus carnosus; 3 μM): 0.890
- Absorbance of culture medium at 600 nm (Staphylococcus carnosus; 6 μM): 0.887
- Absorbance of culture medium at 600 nm (Staphylococcus carnosus; 13 μM): 0.822
- Absorbance of culture medium at 600 nm (Staphylococcus carnosus; 25 μM): 0.819
- Absorbance of culture medium at 600 nm (Staphylococcus carnosus; 50 μM): 0.574
- Absorbance of culture medium at 600 nm (Staphylococcus carnosus; 100 μM): 0.641

SMILES: CC[C@H]1OC(=O)[C@H](C)[C@@H](O[C@@H]2O[C@@H](C)[C@@H](OC(C)=O)[C@@H](OC(C)=O)[C@@H]2OC(C)=O)[C@H](C)[C@@H](O[C@@H]2O[C@H](C)C[C@H](N(C)C)[C@H]2O)[C@](C)(O)C[C@@H](C)CN(C)[C@H](C)[C@@H](O)[C@]1(C)O [Compound A-23, 3-descladinosyl-3-triacetylfucosylazithromycin]
- SARS-CoV-2 viral protein production in CaCo2 cells - effect of each substance at 10 μM (% of untreated) (SARS-CoV-2): 44 % of untreated

SMILES: CC[C@H]1OC(=O)[C@H](C)[C@@H](O[C@H]2C[C@@](C)(OC)[C@@H](O)[C@H](C)O2)[C@H](C)[C@@H](O[C@@H]2O[C@H](C)CC(N(C)C)[C@H]2O)[C@](C)(O)C[C@@H](C)CN(C)[C@H](C)[C@@H](O[N+](=O)[O-])[C@]1(C)O (stereo partly drawn) [Compound E-10]
- Absorbance of culture medium at 600 nm (Salmonella typhimurium; 0.8 μM): 0.334
- Absorbance of culture medium at 600 nm (Salmonella typhimurium; 2 μM): 0.361
- Absorbance of culture medium at 600 nm (Salmonella typhimurium; 3 μM): 0.402
- Absorbance of culture medium at 600 nm (Salmonella typhimurium; 6 μM): 0.382
- Absorbance of culture medium at 600 nm (Salmonella typhimurium; 13 μM): 0.399
- Absorbance of culture medium at 600 nm (Salmonella typhimurium; 25 μM): 0.390
- Absorbance of culture medium at 600 nm (Salmonella typhimurium; 50 μM): 0.315
- Absorbance of culture medium at 600 nm (Salmonella typhimurium; 100 μM): 0.280
- Absorbance of culture medium at 600 nm (Staphylococcus carnosus; 0.8 μM): 0.862
- Absorbance of culture medium at 600 nm (Staphylococcus carnosus; 2 μM): 0.826
- Absorbance of culture medium at 600 nm (Staphylococcus carnosus; 3 μM): 0.768
- Absorbance of culture medium at 600 nm (Staphylococcus carnosus; 6 μM): 0.699
- Absorbance of culture medium at 600 nm (Staphylococcus carnosus; 13 μM): 0.702
- Absorbance of culture medium at 600 nm (Staphylococcus carnosus; 25 μM): 0.595
- Absorbance of culture medium at 600 nm (Staphylococcus carnosus; 50 μM): 0.433
- Absorbance of culture medium at 600 nm (Staphylococcus carnosus; 100 μM): 0.576

SMILES: CC[C@H]1OC(=O)[C@H](C)[C@@H](O)[C@H](C)[C@@H](O[C@@H]2O[C@H](C)C[C@H](NC)[C@H]2O)[C@](C)(O)C[C@@H](C)CN(C)[C@H](C)[C@@H](O)[C@]1(C)O [Compound A-25, (2R,3S,4R,5R,8R,10R,11R,12S,13S, 14R)-2-ethyl-3,4,10,13-tetrahydroxy-11-(((2S,3R,4S,6R)-3-hydroxy-6-methyl-4-(methylamino)tetrahydro-2H-pyran-2-yl)oxy)-3,5,6,8,10,12,14-heptamethyl-1-oxa-6-azacyclopentadecan-15-one]
- SARS-CoV-2 viral protein production in CaCo2 cells - effect of each substance at 10 μM (% of untreated) (SARS-CoV-2): 34 % of untreated

SMILES: CC[C@H]1OC(=O)[C@H](C)[C@@H](O[C@H]2C[C@@](C)(OC)[C@@H](O[N+](=O)[O-])[C@H](C)O2)[C@H](C)[C@@H](O[C@@H]2O[C@H](C)C[C@H](N(C)C)[C@H]2O)[C@](C)(O)C[C@@H](C)CN(C)[C@H](C)[C@@H](O)[C@]1(C)O [Compound E-1, (2S,3S,4R,6R)-6-(((2R,3S,4R,5R,8R,10R,11R,12S,13S, 14R)-11-(((2S,3R,4S,6R)-4-(dimethylamino)-3-hydroxy-6-methyltetrahydro-2H-pyran-2-yl)oxy)-2-ethyl-3,4,10-trihydroxy-3,5,6,8,10,12,14-heptamethyl-15-oxo-1-oxa-6-azacyclopentadecan-13-yl)oxy)-4-methoxy-2,4-dimethyltetrahydro-2H-pyran-3-yl nitrate]
- Absorbance of culture medium at 600 nm (Salmonella typhimurium; 0.8 μM): 0.722
- Absorbance of culture medium at 600 nm (Salmonella typhimurium; 2 μM): 0.761
- Absorbance of culture medium at 600 nm (Salmonella typhimurium; 3 μM): 0.711
- Absorbance of culture medium at 600 nm (Salmonella typhimurium; 6 μM): 0.741
- Absorbance of culture medium at 600 nm (Salmonella typhimurium; 13 μM): 0.722
- Absorbance of culture medium at 600 nm (Salmonella typhimurium; 25 μM): 0.736
- Absorbance of culture medium at 600 nm (Salmonella typhimurium; 50 μM): 0.484
- Absorbance of culture medium at 600 nm (Salmonella typhimurium; 100 μM): 0.557
- Absorbance of culture medium at 600 nm (Staphylococcus carnosus; 0.8 μM): 0.902
- Absorbance of culture medium at 600 nm (Staphylococcus carnosus; 2 μM): 0.856
- Absorbance of culture medium at 600 nm (Staphylococcus carnosus; 3 μM): 0.864
- Absorbance of culture medium at 600 nm (Staphylococcus carnosus; 6 μM): 0.625
- Absorbance of culture medium at 600 nm (Staphylococcus carnosus; 13 μM): 0.068
- Absorbance of culture medium at 600 nm (Staphylococcus carnosus; 25 μM): 0.078
- Absorbance of culture medium at 600 nm (Staphylococcus carnosus; 50 μM): 0.096
- Absorbance of culture medium at 600 nm (Staphylococcus carnosus; 100 μM): 0.157

SMILES: CN(C)C(=O)COC(=O)Cc1ccc(OC(=O)c2ccc(NC(=N)N)cc2)cc1 [Camostat, reference compound]
- Fluorescence ratio (SARS-CoV-2; 0.312 μM of the (first named) compound): 0.09
- Fluorescence ratio (SARS-CoV-2; 0.625 μM of the (first named) compound): 0.08
- Fluorescence ratio (SARS-CoV-2; 1.25 μM of the (first named) compound): 0.01
- Fluorescence ratio (SARS-CoV-2; 2.5 μM of the (first named) compound): 0.03
- Fluorescence ratio (SARS-CoV-2; 5 μM of the (first named) compound): 0.07
- SARS-CoV-2 viral protein production in CaCo2 cells - effect of each substance at 10 μM (% of untreated) (SARS-CoV-2): 2 % of untreated
- Fluorescence ratio (SARS-CoV-2; 10 μM of the (first named) compound): 0.02
